{"source": "paper PMC6938345", "about": "“Inhibition of complement activation, myeloperoxidase, NET formation and oxidant activity by PIC1 peptide variants” (PLoS ONE, 2019)", "key": {"Myeloperoxidase (MPO)": {"biological_target": "T1, Myeloperoxidase (MPO) (Homo sapiens, UniProt P05164)", "T1 construct": "purchased Lee BioSolutions (Maryland Heights, MO)", "T1 sequence (P05164 49-745)": "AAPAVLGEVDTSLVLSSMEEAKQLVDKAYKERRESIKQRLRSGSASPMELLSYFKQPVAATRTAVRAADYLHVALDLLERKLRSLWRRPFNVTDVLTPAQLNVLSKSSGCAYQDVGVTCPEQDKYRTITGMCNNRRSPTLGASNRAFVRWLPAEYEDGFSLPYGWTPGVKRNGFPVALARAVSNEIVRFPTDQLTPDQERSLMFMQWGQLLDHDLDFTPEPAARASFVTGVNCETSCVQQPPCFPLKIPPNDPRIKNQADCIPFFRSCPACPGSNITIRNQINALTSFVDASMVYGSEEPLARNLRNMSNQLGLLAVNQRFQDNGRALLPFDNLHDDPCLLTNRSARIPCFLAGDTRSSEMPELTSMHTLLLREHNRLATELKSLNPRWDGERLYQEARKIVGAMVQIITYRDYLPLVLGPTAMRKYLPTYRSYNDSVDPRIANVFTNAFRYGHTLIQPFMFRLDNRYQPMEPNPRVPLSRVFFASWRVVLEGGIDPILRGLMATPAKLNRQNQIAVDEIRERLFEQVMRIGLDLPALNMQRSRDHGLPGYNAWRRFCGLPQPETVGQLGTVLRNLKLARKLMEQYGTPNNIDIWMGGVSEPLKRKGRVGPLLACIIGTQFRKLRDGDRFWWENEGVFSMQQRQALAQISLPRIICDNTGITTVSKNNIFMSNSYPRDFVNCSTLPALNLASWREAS", "experiment": "MPO activity assay (TMB-based)", "type": "biochemical", "details": "range of concentrations", "experimental": "PIC1 and sarcosine variants were diluted to 25 mg/ml and then serially titrated in a 96 well plate at a volume of 0.02 ml. Myeloperoxidase (MPO) was diluted to 20 μg/ml and 0.02 ml was added to the titrated peptides. TMB (3,3′,5,5′-tetramethylbenzidine) (0.1 ml) was added to each well for 2 minutes, followed by 0.1 ml of 2.5 N H2SO4 for another 2 minutes, and then read on a 96 well plate reader (BioTek) at 450 nm.\nIn this assay, the variants were tested for MPO inhibition over a range of concentrations (Fig 2A). Strong MPO inhibition was found for all variants with the exception of the no-cysteine variant (C9,10)."}, "[1]": {"test_system": "purified human neutrophils", "experiment": "NETosis assay, free DNA by PicoGreen", "type": "cell-based", "details": "Average of n = 3; peptide 2 mM", "experimental": "NETosis assays with immune complexes were performed as previously described. Briefly, normal human serum was stimulated with ovalbumin-antiovalbumin immune complexes in GVBS^++ for 30 minutes at 37 °C. This mixture along with 0.05% H2O2 was then added to purified human neutrophils resuspended in RPMI with or without sarcosine variants (2 mM), allowing NETosis to occur. Quantitation of free DNA released from the neutrophils was performed using PicoGreen. Slides were stained with DAPI (Southern Biotech, Birmingham, AL) and the following antibodies, mouse anti-elastase (Invitrogen, Carlsbad, CA) was used with the secondary goat anti-mouse Alexa Fluor 568 (Novus Biologicals, Centennial, CO) and rabbit anti-histone H3 (Abcam, Cambridge MA) with goat anti-rabbit Alexa Fluor 488 (Novus Biologicals) to visualize formation of NETs which were imaged with fluorescence microscopy with an Olympus BX53 microscope.\nIn this assay purified human neutrophils are stimulated with normal human serum activated with ovalbumin-antiovalbumin immune complexes and hydrogen peroxide. Free DNA expressed from the neutrophils is then measured in a PicoGreen assay.\nFig 5 Sarcosine variant inhibition of NET formation. Fluorescence microscopy images of NET formation after neutrophil stimulation with immune complexes (IC) and hydrogen peroxide (H2O2) compared with neutrophil only control. Variant I8 inhibition of NET formation is shown in the third row. Histones are probed with anti-histone antibody (αhistone), neutrophil elastase is probed with anti-neutrophil elastase (αNE) and DNA is stained with DAPI. Representative images are shown. […] Purified human neutrophils were stimulated with 2% normal human sera pre-incubated with ovalbumin-antiovalbumin immune complexes, and 0.05% H2O2. Sarcosine peptides and PIC1 were added to the sera to a final concentration of 2 mM. Data are the means of n = 3 independent experiments + SEM."}, "MPO": {"biological_target": "T2, MPO (Homo sapiens, UniProt P05164)", "T2 construct": "purchased Lee BioSolutions (Maryland Heights, MO)", "T2 sequence (P05164 49-745)": "T1 sequence (P05164 49-745)", "experiment": "MPO binding ELISA-type assay", "details": "solid phased MPO, plate-based", "experimental": "An Immunlon-2 HB ELISA plate was coated with 1 μg/ml C1q or MPO in bicarbonate buffer overnight at 4 °C. The plates were washed with PBST (phosphate buffered saline + 0.1% Tween) and then blocked with 1% gelatin/PBS for 2 hours at room temperature. After washing, the plates were incubated with PA or sarcosine variant peptides starting at 2.5 mg/ml and then serially diluted in 1% gelatin/PBS for 1 hour at room temperature. After washing, the plates were probed with rabbit anti-PA (developed with Cocalico Biologicals, Reamstown, PA) at 1:1000 in 1% gelatin/PBS for 1 hour, room temperature, followed by a goat anti-rabbit HRP (Sigma Aldrich, St Louis, MO) at 1:1,000 in 1% gelatin/PBS for 1 hour at room temperature with a washing step in between. Wells were developed using TMB substrate solution, stopped using 1 N H2SO4, and read at 450 nm in a plate reader.\nWe then tested the binding of the peptide variants to solid phased MPO in a plate-based assay. The binding curves are shown in Fig 2C with MPO binding identified for all variants except C9,10. Due to the near complete overlay of the I8 and PA curves, the PA curve is not shown in the graph. Half-maximal (Fig 2D) binding concentrations were calculated from these curves."}, "[2]": {"experiment": "Peptide solubility in water", "experimental": "(PA) (Table 1) were synthesized by New England Peptide (Gardner, MA) to >90% purity. Sarcosine variants and PEG were dissolved in water and the pH was adjusted with NaOH. PA was dissolved in DMSO and then brought up to the final concentration with water resulting in 30% DMSO and pH adjusted. Antibody sensitized sheep erythrocytes (EA), purified C1q and factor B-depleted human sera were purchased from Complement Technology (Tyler, TX). Purified myeloperoxidase was purchased from Lee BioSolutions (Maryland Heights, MO) and tetramethylbenzidine (TMB) and PicoGreen were purchased from Thermo Fisher (Waltham MA).\n(PA), peptide derivatives were synthesized with sarcosine residues substituted at all 15 positions, included a peptide in which the vicinal cysteines at positions 9 and 10 (C9,C10) were replaced with a single sarcosine residue (Table 1)."}, "[3]": {"experiment": "Total Antioxidant Capacity (TAC) assay", "experimental": "The TAC (Total Antioxidant Capacity) Assay (Cell Biolabs, Inc, San Diego, CA) was used to measure the antioxidant capacity of the sarcosine variants based on the reduction of copper (II) to copper (I). The kit protocol was performed as recommended.\nAntioxidant activity is measured in copper reducing equivalents (CRE). Peptides were tested over a range of concentrations from 0.03–0.25 mM then compared to the standard. Data are the means of n = 3 independent experiments + SEM."}}}
{"smiles": "CC[C@H](C)[C@H](N)C(=O)N[C@@H](C)C(=O)N[C@@H](CC(C)C)C(=O)N[C@H](C(=O)N[C@@H](CC(C)C)C(=O)N[C@@H](CCC(=O)O)C(=O)N1CCC[C@H]1C(=O)N(C)CC(=O)N[C@@H](CS)C(=O)N[C@@H](CS)C(=O)N[C@@H](CCC(N)=O)C(=O)N[C@@H](CCC(=O)O)C(=O)N[C@@H](CCCNC(=N)N)C(=O)N[C@@H](C)C(=O)N[C@@H](C)C(=O)O)[C@@H](C)CC", "note": "[I8]", "values": [{"measurement": "MPO inhibition (in words)", "setting": "Myeloperoxidase (MPO)", "result": "greatest potency"}, {"measurement": "PICO green - NETs, free DNA release", "setting": "[1]", "result": 43}, {"measurement": "binding to MPO (in words)", "setting": "MPO", "result": "superior binding to MPO"}, {"measurement": "solubility in water (in words)", "setting": "[2]", "result": "soluble in water"}, {"measurement": "TAC assay, antioxidant activity", "setting": "[3]; Avg of n = 3", "result": "1239.37 copper reducing equivalents (CRE)"}, {"measurement": "antioxidant capacity (in words)", "setting": "[3]; TAC assay", "result": "approaching that of PA-dPEG24"}]}
